Results from the NIST ThermoML archive (doi:10.1021/je700580g).

Columns and labels:
[1] = 101.33 kPa, Liquid
[2] = refractive index (Na D-line) (dimensionless); conditions: 101.33 kPa, Liquid, Standard Abbe refractometry
[3] = xn = mol fraction of the nth substance listed; conditions: 101 kPa, Liquid

CCCCCCCCO [octan-1-ol]
Conditions	mass density, 293.15 K [kg/m3]	mass density, 298.15 K [kg/m3]	mass density, 303.15 K [kg/m3]	mass density, 308.15 K [kg/m3]	mass density, 313.15 K [kg/m3]	refractive index, 293.15 K	refractive index, 298.15 K
[1]	825.12	821.75	818.31	814.8	811.41	–	–
[2]	–	–	–	–	–	1.4298	1.428

OCCO [1,2-ethanediol] + CCCCO
mass density [kg/m3], [3]
Conditions	x1 = 0.08923	x1 = 0.249	x1 = 0.3206	x1 = 0.4019	x1 = 0.5347	x1 = 0.6571	x1 = 0.6974	x1 = 0.7753	x1 = 0.81	x1 = 0.9121
293.15 K	826.85	861.02	878.11	898.74	936.02	975.06	989.14	1017.69	1030.76	1073.19
298.15 K	823.02	857.21	874.25	894.96	932.22	971.34	985.27	1013.86	1027.06	1069.67
303.15 K	819.29	853.42	870.64	891.24	928.63	967.77	981.88	1010.51	1023.76	1066.15
308.15 K	815.49	849.65	866.86	887.45	924.91	964.18	978.14	1006.95	1020.29	1062.56
313.15 K	811.51	845.69	862.94	883.57	921.05	960.49	974.54	1003.28	1016.76	1059.01

CCCCO [butan-1-ol]
Conditions	mass density, 293.15 K [kg/m3]	mass density, 298.15 K [kg/m3]	mass density, 303.15 K [kg/m3]	mass density, 308.15 K [kg/m3]	mass density, 313.15 K [kg/m3]	refractive index, 293.15 K	refractive index, 298.15 K
[1]	809.6	805.84	802.04	798.2	794.31	–	–
[2]	–	–	–	–	–	1.3997	1.3978

OCCO [1,2-ethanediol]
Conditions	mass density, 293.15 K [kg/m3]	mass density, 303.15 K [kg/m3]	mass density, 313.15 K [kg/m3]	refractive index, 293.15 K	refractive index, 298.15 K
[1]	1113.37	1106.4	1099.35	–	–
[2]	–	–	–	1.4323	1.4309

CCCCCCCCO [octan-1-ol] + OCCO
mass density [kg/m3], [3]
Conditions	x2 = 0.07997	x2 = 0.159	x2 = 0.2159	x2 = 0.36	x2 = 0.4825	x2 = 0.5912	x2 = 0.6299	x2 = 0.7437	x2 = 0.8063	x2 = 0.8892
293.15 K	833.01	842	849.21	870.86	894.13	920.03	930.8	968.64	994.57	1036.57
298.15 K	829.64	838.63	845.74	867.38	890.64	916.52	927.19	965.11	991.03	1033.02
303.15 K	826.15	835.13	842.24	863.92	887.11	912.94	923.7	961.5	987.45	1029.52
308.15 K	822.68	831.61	838.76	860.33	883.47	909.33	920.08	957.92	983.8	1025.99
313.15 K	819.15	828.07	835.18	856.83	879.91	905.71	916.5	954.32	980.25	1022.37

CCCCCCO [hexan-1-ol]
Conditions	mass density, 293.15 K [kg/m3]	mass density, 298.15 K [kg/m3]	mass density, 303.15 K [kg/m3]	mass density, 308.15 K [kg/m3]	mass density, 313.15 K [kg/m3]	refractive index, 293.15 K	refractive index, 298.15 K
[1]	818.74	815.28	811.71	808.13	804.53	–	–
[2]	–	–	–	–	–	1.4183	1.4161

CCCCCCO [hexan-1-ol] + OCCO
mass density [kg/m3], [3]
Conditions	x2 = 0.08275	x2 = 0.1585	x2 = 0.2374	x2 = 0.3265	x2 = 0.4905	x2 = 0.5445	x2 = 0.5965	x2 = 0.6932	x2 = 0.7757	x2 = 0.9053
293.15 K	829.72	840.78	853.56	869.87	905.8	919.79	934.39	965.41	996.6	1057.08
298.15 K	826.21	837.17	849.99	866.29	902.2	916.19	930.83	961.84	993.11	1053.67
303.15 K	822.63	833.58	846.39	862.69	898.58	912.56	927.24	958.23	989.49	1050.1
308.15 K	819.02	829.96	842.67	859.01	894.88	908.9	923.53	954.54	985.79	1046.52
313.15 K	815.44	826.33	839.04	855.36	891.27	905.23	919.95	950.95	982.18	1042.98
